The text below walks through data of PubChem BioAssay (NCI).

Among the test systems are 786-0 renal; A549 NSCLC; DU-145 prostate; HCT-116 colon; IGROV1 ovarian; LOX IMVI melanoma; MDA-MB-231 breast; MDA-N; OVCAR-5 ovarian; OVCAR-8 ovarian; PC-3 prostate; RXF 393 renal; SF-295 CNS; SK-MEL-2 melanoma; SN12C renal; U251 CNS; UACC-257 melanoma; COLO 205 colon; NCI-H522 lung.
Common to all, as to assay: growth of human tumour cells (NCI), 48 h

The structures appear in SMILES notation.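 Growth conditions: 96-well plates. Treatment: test compound, 48 hours, 5 concentrations. Analysis: linear interpolation between bracketing concentrations; unreached endpoints set to highest concentration. TGI marks complete inhibition of growth.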

For the compound `O=S(=O)(Nc1nc2ccccc2nc1Nc1cccc2ccccc12)c1ccccc1`, the TGI was 68.4 µM in the assay on 786-0 renal; greater than 100 µM in the assay on A549 NSCLC; greater than 100 µM with DU-145 prostate; greater than 100 µM in the assay with HCT-116 colon; greater than 100 µM in the assay on IGROV1 ovarian; greater than 100 µM with LOX IMVI melanoma. The TGI was 43.9 µM with MDA-MB-231 breast; greater than 100 µM with MDA-N; greater than 100 µM in the assay with OVCAR-5 ovarian; greater than 100 µM in the assay on OVCAR-8 ovarian; greater than 100 µM with PC-3 prostate; 78.9 µM with RXF 393 renal. Moreover, the TGI with SF-295 CNS was greater than 100 µM; with SK-MEL-2 melanoma it was greater than 100 µM; in the assay on SN12C renal, greater than 100 µM; in the assay with U251 CNS, 30 µM; with UACC-257 melanoma, greater than 100 µM.

On to `Nc1cc(N2CCOCC2)nc(=O)n1-c1ccccc1`, for which the TGI in the assay on 786-0 renal, in the assay on A549 NSCLC, in the assay on COLO 205 colon, with DU-145 prostate, with HCT-116 colon and with IGROV1 ovarian was greater than 100 µM each time. Further, the TGI with LOX IMVI melanoma, with MDA-N, in the assay with OVCAR-5 ovarian, in the assay with OVCAR-8 ovarian, in the assay with PC-3 prostate and in the assay on SF-295 CNS was greater than 100 µM in each case. For the same compound, the TGI in the assay on SK-MEL-2 melanoma, with SN12C renal, in the assay on U251 CNS and in the assay on UACC-257 melanoma was greater than 100 µM throughout.

For the compound `CSC1=C(C(=O)N(COCC[Si](C)(C)C)c2ccccc2Br)CCC(C(C)(C)C)C1` (configuration not stated), the TGI was 26.2 µM with 786-0 renal; greater than 100 µM in the assay with A549 NSCLC; 25.7 µM in the assay with COLO 205 colon; greater than 100 µM with DU-145 prostate; 18.3 µM in the assay on HCT-116 colon; greater than 100 µM in the assay on IGROV1 ovarian. The TGI with LOX IMVI melanoma was 29.2 µM; in the assay on MDA-MB-231 breast it was 30.5 µM; in the assay with NCI-H522 lung, 24.6 µM; in the assay on OVCAR-5 ovarian it was 28.7 µM; in the assay on OVCAR-8 ovarian, greater than 100 µM; with PC-3 prostate, greater than 100 µM. Moreover, the TGI amounted to 23.1 µM with RXF 393 renal; 25.6 µM in the assay with SF-295 CNS; 31.7 µM in the assay with SK-MEL-2 melanoma; 27.8 µM in the assay on SN12C renal; 24 µM in the assay with U251 CNS; 47.8 µM with UACC-257 melanoma.

With `Cc1ccc(N/C(=C(/C(Cl)=C(Cl)Cl)[N+](=O)[O-])n2nnc3ccccc32)cc1`, the TGI turned out to be 38.4 µM in the assay with 786-0 renal; 37.3 µM in the assay with A549 NSCLC; 28.4 µM in the assay with COLO 205 colon; 75.5 µM with HCT-116 colon; 38.1 µM in the assay on MDA-N; 41 µM with OVCAR-5 ovarian. The TGI with OVCAR-8 ovarian was 38 µM; in the assay with PC-3 prostate, 33.8 µM; with SF-295 CNS, 36.7 µM; in the assay with SK-MEL-2 melanoma, 35.5 µM; in the assay on SN12C renal, 43.7 µM; in the assay with UACC-257 melanoma, 62.7 µM.

For `O=C1CC2(CCN(CC3COc4ccccc4O3)CC2)C(=O)N1N1CCCCCC1` (configuration not stated), the TGI with 786-0 renal, in the assay with A549 NSCLC, in the assay on COLO 205 colon, in the assay with DU-145 prostate, in the assay on HCT-116 colon and in the assay with IGROV1 ovarian was greater than 100 µM in each case. In addition, the TGI in the assay with LOX IMVI melanoma, in the assay with MDA-MB-231 breast, in the assay on NCI-H522 lung, with OVCAR-5 ovarian, in the assay with OVCAR-8 ovarian and in the assay with PC-3 prostate was greater than 100 µM in each case. Also, the TGI in the assay with RXF 393 renal, with SF-295 CNS, in the assay with SK-MEL-2 melanoma, in the assay on SN12C renal, in the assay with U251 CNS and in the assay with UACC-257 melanoma was greater than 100 µM in each case.

Consider `Clc1ccc(/C=c2\nc(-c3ccccc3)n3c2nc2ccccc23)cc1`, for which the TGI in the assay with 786-0 renal, with A549 NSCLC, in the assay with COLO 205 colon, with DU-145 prostate, with HCT-116 colon and with IGROV1 ovarian was greater than 100 µM each time. Further, the TGI with LOX IMVI melanoma is greater than 100 µM; in the assay with MDA-MB-231 breast, greater than 100 µM; in the assay with OVCAR-5 ovarian, greater than 100 µM; with OVCAR-8 ovarian, greater than 100 µM; in the assay on PC-3 prostate, 87.8 µM; in the assay with RXF 393 renal, greater than 100 µM. The TGI with SF-295 CNS, with SK-MEL-2 melanoma, with SN12C renal, in the assay with U251 CNS and with UACC-257 melanoma was greater than 100 µM in each case.

Regarding `O=c1oc2cc(O)ccc2c(O)c1C(c1ccc2ccccc2c1)c1c(O)c2ccc(O)cc2oc1=O`, the TGI in the assay with 786-0 renal, with A549 NSCLC, with COLO 205 colon, with DU-145 prostate, with HCT-116 colon and with IGROV1 ovarian was greater than 100 µM throughout. For the same compound, the TGI in the assay on LOX IMVI melanoma, with MDA-MB-231 breast, with NCI-H522 lung, in the assay on OVCAR-5 ovarian, with OVCAR-8 ovarian and in the assay on PC-3 prostate was greater than 100 µM each time. Further, the TGI with RXF 393 renal, in the assay on SF-295 CNS, with SK-MEL-2 melanoma, in the assay with SN12C renal, with U251 CNS and in the assay on UACC-257 melanoma was greater than 100 µM throughout.

As for `S=C(Nc1ccc(Cl)cc1)c1ccc(CN2CCCCC2)s1`, the TGI is greater than 100 µM in the assay on 786-0 renal; greater than 100 µM with A549 NSCLC; 14.2 µM with COLO 205 colon; greater than 100 µM in the assay with DU-145 prostate; 25.5 µM in the assay with HCT-116 colon; 8.82 µM in the assay with IGROV1 ovarian. The TGI in the assay with LOX IMVI melanoma amounted to 6.14 µM; in the assay on MDA-N, 16.8 µM; in the assay with NCI-H522 lung, 75 µM; with OVCAR-5 ovarian, 32.1 µM; in the assay on OVCAR-8 ovarian, 27.1 µM; in the assay with PC-3 prostate, 73.4 µM. Besides, the TGI with SK-MEL-2 melanoma is greater than 100 µM; in the assay on SN12C renal, 39.2 µM; with U251 CNS it was greater than 100 µM; with UACC-257 melanoma, greater than 100 µM.
